Results: ChEMBL document CHEMBL4229339, “Total syntheses and stereochemical reassignments of mollenines A and B” (Bioorg Med Chem Lett, 2018)
Active and inactive are the calls of the source.

Assays:
Escherichia coli = experiment: Antibacterial activity against Escherichia coli at 5 uM; assay type: functional, organism-based
Bacillus cereus = experiment: Antibacterial activity against Bacillus cereus at 5 uM; assay type: functional, organism-based
Candida albicans = experiment: Antifungal activity against Candida albicans at 5 uM; assay type: functional, organism-based
Homo sapiens = species: Homo sapiens; experiment: Cytotoxicity against human HeLa/Fucci cells at 5 uM; assay type: functional, cell-based

Measured: Activity

CC(C)=CCC12CC3C(=O)OC(CC(C)C)C(=O)N3C1Nc1ccccc12 (single isomer, unassigned; (+))
inactive: all assays above

CC(C)=CC[C@@]12C[C@H]3C(=O)O[C@H](CC(C)C)C(=O)N3[C@@H]1Nc1ccccc12
inactive: all assays above

CC(C)=CCC12CC3C(=O)OC(CC(C)C)C(=O)N3C1Nc1ccccc12 (stereo in doubt; (+)-7)
inactive: all assays above

CC(C)=CC[C@@]12C[C@H]3C(=O)O[C@@H](CC(C)C)C(=O)N3[C@@H]1Nc1ccccc12
inactive: all assays above

CC(C)=CC[C@@]12C[C@H]3C(=O)O[C@@H](CC(C)C)C(=O)N3[C@@H]1N(C=O)c1ccccc12
inactive: all assays above

CC(C)=CC[C@@]12C[C@@H]3C(=O)N[C@@H](CC(C)C)C(=O)N3[C@@H]1Nc1ccccc12
inactive: all assays above
